In article PMC2920814 (PLoS ONE, 2010):
“And” between values parts separate entries of the source, which are not always exact repeats. Identical values can stand only once. “Also recorded” adds a separate entry of the source.

Assays:
[1] = target: Erk2 (Mus musculus, UniProt P63085); assay: Affinity chromatography on immobilized drugs, Western blotting; format: binding; details: adult mouse brain extract 500 µg, sepharose beads
[2] = target: T1, pyridoxal kinase (PDXK) (Mus musculus, UniProt Q8K183); assay: as above; format: binding; details: adult mouse brain extract 500 µg, sepharose beads
T1 sequence (Q8K183 1-312): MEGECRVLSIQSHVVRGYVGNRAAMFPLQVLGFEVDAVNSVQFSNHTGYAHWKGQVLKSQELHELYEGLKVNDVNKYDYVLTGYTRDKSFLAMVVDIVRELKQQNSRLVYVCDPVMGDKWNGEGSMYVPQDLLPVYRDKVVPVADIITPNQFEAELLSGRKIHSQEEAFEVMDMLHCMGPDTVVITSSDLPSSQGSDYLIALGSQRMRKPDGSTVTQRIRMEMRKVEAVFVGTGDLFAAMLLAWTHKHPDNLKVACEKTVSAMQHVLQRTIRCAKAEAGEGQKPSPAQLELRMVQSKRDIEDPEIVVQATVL

[3] = tested on: E18 mixed hippocampal cell cultures; assay: Kainate (KA)-induced neuronal excitotoxicity, PI staining; format: cell-based, rat (Wistar); details: KA 200 µM for 5 hrs; for neuroprotective effect on KA-induced neuronal death (relative neuronal death): 10 div cultures, compound added with KA, 0.05 to 50 µM
[4] = tested on: CDK1/CyclB; set-up: method as in PMID 15975926, PMID 15985434; details: previously described; ref [30], [31]; cited from earlier work
[5] = tested on: CDK2/CyclE; set-up: method as in PMID 15975926, PMID 15985434; details: previously described; ref [30], [31]; cited from earlier work
[6] = tested on: CDK5/p25; set-up: method as in PMID 15975926, PMID 15985434; details: previously described; ref [30], [31]; cited from earlier work
[7] = tested on: ERK2; set-up: method as in PMID 15975926, PMID 15985434; details: previously described; ref [30], [31]; cited from earlier work
[8] = tested on: CK1; set-up: method as in PMID 15975926, PMID 15985434; details: previously described; ref [30], [31]; cited from earlier work
[9] = tested on: permanent focal cerebral ischemia (pMCAo) in adult mice; assay: Permanent middle cerebral artery occlusion (pMCAo), infarct volumes by TTC staining; format: in vivo, mouse (C57 b/6); details: 3 hrs after occlusion
[10] = Blood brain barrier permeability, brain and plasma level after IV injection (LC/MS/MS); format: in vivo; details: SD, rat, brain, sampling time 15 min, healthy adult rats, n = 2
Description: Dosed animals were sacrificed at 15 min after the end of the intravenous injection. Blood were collected through the retro-orbital sinus using a capillary tube. Animals were then perfused with saline solution into the heart to […] the brain. Brain was collected, and homogenized. Both plasma and brain samples were analyzed using LC/MS/MS determination, according to ADME-Bioanalysis (Vergeze, France) procedures.

[11] = ICV infusion 500 µM starting 48 hrs before pMCAo
[12] = IP 25 mg/kg 15 min pre- and 1 hr post-MCAo, 25 mg/kg

Chain of Erk2 (P63085 whole entry): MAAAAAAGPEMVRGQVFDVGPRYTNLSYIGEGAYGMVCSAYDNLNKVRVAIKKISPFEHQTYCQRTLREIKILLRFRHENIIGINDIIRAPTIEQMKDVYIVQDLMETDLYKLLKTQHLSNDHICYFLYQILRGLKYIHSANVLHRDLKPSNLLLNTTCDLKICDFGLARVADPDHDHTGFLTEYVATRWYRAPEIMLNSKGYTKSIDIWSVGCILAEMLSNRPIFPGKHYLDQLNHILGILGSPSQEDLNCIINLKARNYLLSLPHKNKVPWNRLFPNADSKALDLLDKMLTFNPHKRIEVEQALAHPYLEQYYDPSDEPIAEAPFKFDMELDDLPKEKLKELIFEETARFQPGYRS

CC[C@H](CO)Nc1nc(NCc2ccccc2)c2ncn(C(C)C)c2n1 [(R)-roscovitine]
binding of Erk2 to immobilized compound [1]: bind | binding of PDXK to immobilized compound [2]: bind

CC[C@H](CO)Nc1nc(N(C)Cc2ccccc2)c2ncn(C(C)C)c2n1 [N^6-methyl (R)-roscovitine]
neuroprotective effect on KA-induced neuronal death (relative neuronal death) [3]: no significant neuroprotective effect | neuroprotective effect on KA-induced neuronal death (relative neuronal death) ([3]; listed as N^6-methyl-(R)-roscovitine): did not exhibited any neuroprotective effect | binding of PDXK to immobilized compound [2]: bind | IC50 [4]: 45 µM | IC50 [5]: 250 µM | IC50 [6]: 45 µM | IC50 [7]: > 1000 µM | IC50 [8]: > 1000 µM

CC[C@H](CO)Nc1nc(OCc2ccccc2)c2ncn(C(C)C)c2n1 [O^6-(R)-roscovitine]
neuroprotective effect on KA-induced neuronal death (relative neuronal death) [3]: no significant neuroprotective effect; also recorded: did not exhibited any neuroprotective effect | IC50 [4]: 100 µM | IC50 [5]: 250 µM | IC50 [6]: 200 µM | IC50 [7]: 700 µM | IC50 [8]: > 1000 µM

CC[C@@H](CO)Nc1nc(NCc2ccccc2)c2ncn(C(C)C)c2n1 [(S)-roscovitine]
decrease of the total infarct volume compared to vehicle [9, 11]: 28% and 27.7% | ischemic core volume compared to vehicle [9, 11]: comparable | reduction of the ischemic (hypometabolic) zone volume compared to vehicle [9, 11]: 36% and 35.8% | ischemic core volume compared to vehicle ([9]; IP 25 mg/kg 15 min pre- and 1 hr post-MCAo): comparable | decrease of the ischemic (hypometabolic) zone volume compared to vehicle [9, 12]: 39% and 38.9% | decrease of the total infarct volume compared to vehicle [9, 12]: 31% and 30.7% | Kp at 0.25 h ([10]; 20 mg/kg, i.v. 20 mg/kg): 0.15 | Kp at 0.25 h ([10]; 30 mg/kg, i.v. 30 mg/kg): 0.17 | neuroprotective effect compared to the (R) stereoisomer ([3]; 0.5 µM): significantly stronger neuroprotective effect; also recorded: significantly increased neuroprotective activity | binding of Erk2 to immobilized compound [1]: preferentially bound and bind | binding of PDXK to immobilized compound [2]: did not bind
